The values below come from patent publication US11236073B2, “ODM-201 crystalline form, preparation method therefor, and pharmaceutical composition thereof” (Hangzhou SoliPharma Co., Ltd., priority 2017, dated 2022).

Values after ≈ are worked out from the molar mass of the structure shown. “Also recorded” adds a separate entry of the source.

Holding throughout (format): physicochemical
Data set [1] in a line: Crystalline form stability experiment (XRD after storage). The settings on record: stored 7 days at high temperature 60° C., high moisture content 97% RH, and 40° C.-75% RH. The protocol:
X-ray powder diffraction (XRPD): performed on Bruker D8 Advance diffractometer. Samples were tested at room temperature. Testing conditions: scan range 3-40° 2θ, step size 0.02°2θ, and speed 0.2 s/step.
Crystalline form stability experiment: 15 mg of amorphous ODM-201, ODM-201 Form 1, ODM-201 Form 2, ODM-201 Form 4 and ODM-201 Form 5 in the present invention were respectively placed under the following different conditions: high temperature 60° C., high moisture content 97% RH, and 40° C.-75% RH. The samples were stored for 7 days before analyzed by XRD crystalline form measurements.

Data set [2] in a line: Chemical stability experiment (HPLC purity after storage). The note with it: for reduction of chemical purity after storage: dry condition (desiccator) at 60° C. for 7 days; for Purity (%): dry condition at 60° C., HPLC. The procedure:
HPLC purity data were collected on Ultimate 3000 high performance liquid chromatography under the following conditions: column AY-H (4.6*100 mm, 5 μm) detection wavelength 270 nm, column temperature 40° C., flow rate 0.8 mL/min, injection volume 5 μL. The sample was dissolved in ethanol to make a solution concentration about 1 mg/mL, and a gradient method using HPLC measurements to determine the purity of the sample. […]

Data set [3] in a line: Isothermal sorption / dynamic vapor sorption (hygroscopicity). The note with it: between 0% RH and 80% RH. The protocol:
Dynamic vapor sorption data and isothermal sorption data were collected on TA Instruments Q5000 TGA. Method: A sample of 1 to 10 mg was placed in a platinum pan; the weight change of the sample during the change in relative humidity from 0% to 80% to 0% was measured.

Data set [4] can be described thus: Apparent water solubility. The settings on record: stirred 1 hour. The procedure: ODM-201 Form 1, ODM-201 Form 2, ODM-201 Form 3, ODM-201 Form 4 and ODM-201 Form 5 in the present invention were tested for the apparent water solubility, and the specific operations were as follows.
Weighed accurately and placed 15 mg of sample in a 20 mL glass vial containing 5 mL of water, and placed the vials at 25±2° C. and 37±2° C. water bath respectively, stirred in dark (about 200 rpm/min) for 1 hour, filtered with a 0.45 µm filter and took the supernatant, diluted to a certain concentration, analyzed the concentration by HPLC.

The term Solubility denotes the concentration that dissolves in the medium under given conditions. In the case of `CC(O)c1cc(C(=O)N[C@@H](C)Cn2ccc(-c3ccc(C#N)c(Cl)c3)n2)n[nH]1` (stereo partly drawn) [ODM-201 Form 5, N—((S)-1-(3-(3-chloro-4-cyanophenyl)-1H-pyrazol-1-yl)prop-2-yl)-5-(1-hydroxyethyl)-1H-pyrazole-3-carboxamide], the “The test results after 7 days (crystalline form by XRD)” value (shortened to “The test results after 7 days”) in data set [1] is given as “kept their original crystalline forms; also recorded: keeps its form unchanged; also recorded: Form 5”. The “reduction of chemical purity after storage” value (“reduction of chemical purity” for short) in data set [2] is listed as “still kept their original respective purity level; also recorded: essentially unchanged”. The figures for the “Purity (%)” value in data set [2] (1 day) and in data set [2] (7 days) were 99.6% and 99.5%, respectively. In data set [3], the “moisture sorption (weight change)” value is “less than 0.5%”. Further, the “Solubility” value in data set [4] (25 ± 2° C.) worked out at 0.0177 mg/mL (≈ 44.4 µM); in data set [4] (37 ± 2° C.), 0.0295 mg/mL (≈ 74 µM).

Consider `CC(O)c1cc(C(=O)N[C@@H](C)Cn2ccc(-c3ccc(C#N)c(Cl)c3)n2)n[nH]1` (stereo partly drawn) [ODM-201 Form 4, N—((S)-1-(3-(3-chloro-4-cyanophenyl)-1H-pyrazol-1-yl)prop-2-yl)-5-(1-hydroxyethyl)-1H-pyrazole-3-carboxamide], for which the “The test results after 7 days” value in data set [1] is “kept their original crystalline forms; also recorded: keeps its form unchanged; also recorded: Form 4”. The “reduction of chemical purity” value in data set [2] is reported as “still kept their original respective purity level; also recorded: essentially unchanged”. In addition, the “Purity (%)” value is listed as 99.2% in data set [2] (1 day) and 99.1% in data set [2] (7 days). Moreover, the “moisture sorption (weight change)” value in data set [3] is listed as “less than 0.2%”. Besides, the “Solubility” value in data set [4] (25 ± 2° C.) was 0.0595 mg/mL (≈ 149 µM); in data set [4] (37 ± 2° C.) it was 0.0886 mg/mL (≈ 222 µM).

For the molecule `CC(O)c1cc(C(=O)N[C@@H](C)Cn2ccc(-c3ccc(C#N)c(Cl)c3)n2)n[nH]1` (stereo partly drawn) [amorphous ODM-201, N—((S)-1-(3-(3-chloro-4-cyanophenyl)-1H-pyrazol-1-yl)prop-2-yl)-5-(1-hydroxyethyl)-1H-pyrazole-3-carboxamide, reference compound], the results for the “The test results after 7 days” value in data set [1] and in data set [1] (listed as ODM-201 amorphous form) were “begins to show a weak crystalline state; also recorded: Amorphous with weak crystalline peaks” and “began to show a weak crystalline state”, respectively. In data set [2], the “reduction of chemical purity” value was “more than 1%”. Moreover, the figures for the “Purity (%)” value in data set [2] (1 day) and in data set [2] (7 days) were 99.7% and 98.2%, respectively. For the same molecule, the “moisture sorption (weight change)” value in data set [3] came out at 6.4%.

Turning to `CC(O)c1cc(C(=O)N[C@@H](C)Cn2ccc(-c3ccc(C#N)c(Cl)c3)n2)n[nH]1` (stereo partly drawn) [ODM-201 Form 2, N—((S)-1-(3-(3-chloro-4-cyanophenyl)-1H-pyrazol-1-yl)prop-2-yl)-5-(1-hydroxyethyl)-1H-pyrazole-3-carboxamide], the “The test results after 7 days” value in data set [1] was “kept their original crystalline forms; also recorded: keeps its form unchanged; also recorded: Form 2”. Moreover, the “reduction of chemical purity” value in data set [2] is reported as “still kept their original respective purity level; also recorded: essentially unchanged”. For the same molecule, the “Purity (%)” value in data set [2] (1 day) and in data set [2] (7 days) was 99.6% in each case. Further, in data set [3], the “moisture sorption (weight change)” value is recorded as 2.5%. Moreover, the “Solubility” value in data set [4] (25 ± 2° C.) was 0.0276 mg/mL (≈ 69.2 µM); in data set [4] (37 ± 2° C.) it was 0.0548 mg/mL (≈ 137 µM).

Take `CC(O)c1cc(C(=O)N[C@@H](C)Cn2ccc(-c3ccc(C#N)c(Cl)c3)n2)n[nH]1` (stereo partly drawn) [ODM-201 Form 1, N—((S)-1-(3-(3-chloro-4-cyanophenyl)-1H-pyrazol-1-yl)prop-2-yl)-5-(1-hydroxyethyl)-1H-pyrazole-3-carboxamide]: the “The test results after 7 days” value in data set [1] is listed as “keeps its form unchanged; also recorded: kept their original crystalline forms; also recorded: Form 1”. For the same molecule, the “reduction of chemical purity” value in data set [2] is listed as “essentially unchanged; also recorded: still kept their original respective purity level”. Moreover, the figures for the “Purity (%)” value in data set [2] (1 day) and in data set [2] (7 days) were 99.7% and 99.6%, respectively. The “moisture sorption (weight change)” value in data set [3] is listed as “less than 0.3%”. The “Solubility” value in data set [4] (37 ± 2° C.) turned out to be 0.0174 mg/mL (≈ 43.6 µM).

Turning to `CC(O)c1cc(C(=O)N[C@@H](C)Cn2ccc(-c3ccc(C#N)c(Cl)c3)n2)[nH]n1` (stereo partly drawn) [ODM-201 Form 3, N—((S)-1-(3-(3-chloro-4-cyanophenyl)-1H-pyrazol-1-yl)prop-2-yl)-5-(1-hydroxyethyl)-1H-pyrazole-3-carboxamide], the “Solubility” value in data set [4] (25 ± 2° C.) is 0.0125 mg/mL (≈ 31.3 µM); in data set [4] (37 ± 2° C.) it was 0.0243 mg/mL (≈ 60.9 µM).
